The values below come from patent US7674823B2, “DNA-PK inhibitors” (Cancer Research Technology Limited, priority 2001, dated 2010).

This test addresses T1, Mammalian DNA-PK, isolated from Hela cell nuclear extract (Homo sapiens, UniProt P78527).
T1 construct: Mammalian DNA-PK, isolated from Hela cell nuclear extract; endogenous in cells; host or cells: HeLa cell nuclear extract (purified per Gell and Jackson 1999)
Kind of test: DNA-PK inhibition assay (33P-ATP, filter binding). Format: biochemical. The procedure:
In order to assess the inhibitory action of the compounds against DNA-PK in vitro, the following assay was used to determine IC50 values.
The total assay volume per well was 40 μl.
After 10 minutes of incubation at 30° C. the reactions were initiated by the addition of Na-ATP (50 μM final), ^33p-γATP and a 30mer double stranded DNA oligonucleotide (10 ng/μl) in a volume of 10 μl. Designated positive and negative reaction wells were done in combination with compound wells (unknowns) in order to calculate % enzyme activities. The plates were then shaken for 2 minutes and incubated at 30° C. for 45 minutes.
Following the incubation, the reactions were quenched by the addition of 50 μl 30% acetic acid to each well. The plates were then shaken for 5 minutes and the contents of each plate (80 μl from each well) transferred over to a 96 well Polyfiltronics filtration plate, containing P81-phosphocellulose membrane (TRADE MARK)(Whatman, UK). The solutions were vacuum pumped through the membrane and each well membrane washed four times using 300 μl of 15% acetic acid. The well membranes were then air dried and 20 μl of scintillant was added to each well.
The plates were transferred to a TopCount NXT (TRADE MARK) (Packard, UK) for scintillation counting. Values recorded are counts per minute (cpm) following a 1 minute counting time for each well.
The enzyme activity for each compound is then calculated using the following equation: […]
These are determined over a range of different concentrations, normally from 10 μM down to 0.01 μM. Such IC50 values are used as comparative values to identify increased compound potencies.

The mark [1] stands for this setting: IC50 of less than about 1 μM and/or % inhibition of more than about 50 at 1 μM, read-out: DNA-PK inhibition IC50 (particular efficacy).
Where [2] appears, read: concentration at which 50% of the enzyme activity is inhibited, read-out: DNA-PK Inhibition IC50.

pIC50: −log10 of the molar value. Where two headings read alike, the source gives them in different places.

As a reminder, the pIC50 is the IC50 on a negative log10 scale, so that one unit is a factor of ten. With `O=c1cc(N2CC[C@H](O)C2)nc2c3ccccc3ccn12` [Compound 12, 2-((S)-3-Hydroxy-pyrrolin-1-yl)-pyrimido[2,1-a]isoquinolin-4-one], the pIC50 (read-out: DNA-PK Inhibition IC50) is 4.98.

For the compound `O=c1cc(-c2ccc3c(c2)CCO3)oc(N2CCOCC2)c1` [Compound 59], the pIC50 under setting [1] is over 6.00.

`O=c1cc(-c2ccc3c(c2)OCCO3)oc(N2CCOCC2)c1` [Compound 60]: under setting [1], the pIC50 is over 6.00.

Take `O=c1cc(-c2cccc3ccsc23)oc(N2CCOCC2)c1` [Compound 72]: the pIC50 under setting [1] was over 6.00.

In the case of `N#CCNC(=O)c1cccc(-c2cc(=O)cc(N3CCOCC3)o2)c1` [Compound 73], under setting [1], the pIC50 was over 6.00.

As for `O=C(NC1CC1)c1cccc(-c2cc(=O)cc(N3CCOCC3)o2)c1` [Compound 74], under setting [1], the negative-log IC50 (pIC50) was over 6.00.

With `O=C(NCc1cccc(C(F)(F)F)c1)c1cccc(-c2cc(=O)cc(N3CCOCC3)o2)c1` [Compound 99], the pIC50 under setting [1] is over 6.00.

With `Nc1cccc(CNC(=O)c2cccc(-c3cc(=O)cc(N4CCOCC4)o3)c2)c1` [Compound 104], the pIC50 under setting [1] is over 6.00.

Take `CN(C)c1ccc(CNC(=O)c2cccc(-c3cc(=O)cc(N4CCOCC4)o3)c2)cc1` [Compound 105]: under setting [1], the pIC50 was over 6.00.

Consider `CN(C)CCN(Cc1ccccc1)C(=O)c1cccc(-c2cc(=O)cc(N3CCOCC3)o2)c1` [Compound 106], for which the pIC50 under setting [1] is over 6.00.

For `NCc1cccc(CNC(=O)c2cccc(-c3cc(=O)cc(N4CCOCC4)o3)c2)c1` [Compound 107], the pIC50 under setting [1] was over 6.00.

Turning to `O=C(NC1CCC(O)CC1)c1cccc(-c2cc(=O)cc(N3CCOCC3)o2)c1` (stereo not drawn) [Compound 114], the pIC50 under setting [1] is over 6.00.

On to `CCN(CC)CCCNC(=O)c1cccc(-c2cc(=O)cc(N3CCOCC3)o2)c1` [Compound 118], for which, under setting [1], the pIC50 was over 6.00.

In the case of `O=C(CNC(=O)c1cccc(-c2cc(=O)cc(N3CCOCC3)o2)c1)c1cccc([N+](=O)[O-])c1` [Compound 123], under setting [1], the pIC50 is over 6.00.

Turning to `COCCCNC(=O)c1cccc(-c2cc(=O)cc(N3CCOCC3)o2)c1` [Compound 125], the pIC50 under setting [1] is over 6.00.

In the case of `O=C(NCCOc1ccccc1)c1cccc(-c2cc(=O)cc(N3CCOCC3)o2)c1` [Compound 126], the pIC50 under setting [1] was over 6.00.

Turning to `COCCNC(=O)c1cccc(-c2cc(=O)cc(N3CCOCC3)o2)c1` [Compound 127], the pIC50 under setting [1] was over 6.00.

Turning to `O=C(NCc1cccs1)c1cccc(-c2cc(=O)cc(N3CCOCC3)o2)c1` [Compound 131], the negative-log IC50 (pIC50) under setting [1] is over 6.00.

Take `O=C(c1cccc(-c2cc(=O)cc(N3CCOCC3)o2)c1)N1CCOCC1` [Compound 139]: the pIC50 under setting [1] is over 6.00.

Turning to `O=C(c1cccc(-c2cc(=O)cc(N3CCOCC3)o2)c1)N1CCCC(CO)C1` (stereo not drawn) [Compound 140], under setting [1], the pIC50 is over 6.00.

Turning to `O=C(c1cccc(-c2cc(=O)cc(N3CCOCC3)o2)c1)N1CCN(C/C=C/c2ccccc2)CC1` [Compound 143], under setting [1], the pIC50 was over 6.00.

Turning to `O=C(NN1CCOCC1)c1cccc(-c2cc(=O)cc(N3CCOCC3)o2)c1` [Compound 146], the pIC50 under setting [1] was over 6.00.

As to `Cc1ccccc1CNC(=O)c1ccc(-c2cc(=O)cc(N3CCOCC3)o2)cc1` [Compound 163], under setting [1], the pIC50 is over 6.00.

As for `O=C(c1ccc(-c2cc(=O)cc(N3CCOCC3)o2)cc1)N(Cc1ccccc1)Cc1ccccc1` [Compound 166], under setting [1], the pIC50 is over 6.00.

With `COc1ccc(CCNC(=O)c2ccc(-c3cc(=O)cc(N4CCOCC4)o3)cc2)cc1` [Compound 167], under setting [1], the pIC50 was over 6.00.

`O=C(NCc1cccc(F)c1)c1ccc(-c2cc(=O)cc(N3CCOCC3)o2)cc1` [Compound 169]: the pIC50 under setting [1] was over 6.00.

Consider `O=C(NCCCc1ccccc1)c1ccc(-c2cc(=O)cc(N3CCOCC3)o2)cc1` [Compound 170], for which, under setting [1], the pIC50 was over 6.00.

For `CC(CNC(=O)c1ccc(-c2cc(=O)cc(N3CCOCC3)o2)cc1)c1ccc(Cl)cc1` (stereo not drawn) [Compound 173], the pIC50 under setting [1] was over 6.00.

`O=C(NCc1ccc(OC(F)(F)F)cc1)c1ccc(-c2cc(=O)cc(N3CCOCC3)o2)cc1` [Compound 175]: under setting [1], the pIC50 was over 6.00.

Take `O=C(NCc1cc(C(F)(F)F)cc(C(F)(F)F)c1)c1ccc(-c2cc(=O)cc(N3CCOCC3)o2)cc1` [Compound 176]: the pIC50 under setting [1] is over 6.00.

Consider `O=C(NCc1cccc(C(F)(F)F)c1)c1ccc(-c2cc(=O)cc(N3CCOCC3)o2)cc1` [Compound 178], for which, under setting [1], the pIC50 is over 6.00.

On to `O=C(NCc1cc(F)cc(C(F)(F)F)c1)c1ccc(-c2cc(=O)cc(N3CCOCC3)o2)cc1` [Compound 179], for which, under setting [1], the pIC50 is over 6.00.

On to `Nc1cccc(CNC(=O)c2ccc(-c3cc(=O)cc(N4CCOCC4)o3)cc2)c1` [Compound 182], for which, under setting [1], the pIC50 was over 6.00.

For `O=C(NCCSCc1c(F)cccc1Cl)c1ccc(-c2cc(=O)cc(N3CCOCC3)o2)cc1` [Compound 187], under setting [1], the pIC50 is over 6.00.

As for `O=C(NC(CO)CO)c1ccc(-c2cc(=O)cc(N3CCOCC3)o2)cc1` [Compound 190], the pIC50 under setting [1] is over 6.00.

`CSCCC(CO)NC(=O)c1ccc(-c2cc(=O)cc(N3CCOCC3)o2)cc1` (stereo not drawn) [Compound 192]: the pIC50 under setting [1] is over 6.00.

As for `CC(C)(C)OC(=O)CNC(=O)c1ccc(-c2cc(=O)cc(N3CCOCC3)o2)cc1` [Compound 194], the pIC50 under setting [1] was over 6.00.

As to `COCC(Cc1ccccc1)NC(=O)c1ccc(-c2cc(=O)cc(N3CCOCC3)o2)cc1` (stereo not drawn) [Compound 200], under setting [1], the pIC50 was over 6.00.

Regarding `O=C(NCCOc1ccccc1)c1ccc(-c2cc(=O)cc(N3CCOCC3)o2)cc1` [Compound 202], the pIC50 under setting [1] was over 6.00.

Regarding `O=C(NCCCNC(=O)c1ccc(-c2cc(=O)cc(N3CCOCC3)o2)cc1)OCc1ccccc1` [Compound 203], the pIC50 under setting [1] is over 6.00.

`O=C(NC1CCN(Cc2ccccc2)CC1)c1ccc(-c2cc(=O)cc(N3CCOCC3)o2)cc1` [Compound 205]: the pIC50 under setting [1] is over 6.00.

Regarding `O=C(NC1CN2CCC1CC2)c1ccc(-c2cc(=O)cc(N3CCOCC3)o2)cc1` (stereo not drawn) [Compound 206], the pIC50 is over 6.00.

Consider `O=C(NCc1ccco1)c1ccc(-c2cc(=O)cc(N3CCOCC3)o2)cc1` [Compound 211], for which, under setting [1], the negative-log IC50 (pIC50) is over 6.00.

As to `O=C(NCc1ccccn1)c1ccc(-c2cc(=O)cc(N3CCOCC3)o2)cc1` [Compound 214], under setting [1], the pIC50 was over 6.00.

For the compound `CCOC(=O)C1CCCN(C(=O)c2ccc(-c3cc(=O)cc(N4CCOCC4)o3)cc2)C1` (stereo not drawn) [Compound 215], the pIC50 under setting [1] was over 6.00.

For `COC(=O)C(NCc1ccc(-c2cc(=O)cc(N3CCOCC3)o2)cc1)c1ccccc1` (stereo not drawn) [Compound 247], the pIC50 under setting [1] was over 6.00.

`O=c1cc(-c2ccc(CNCc3cccc(F)c3)cc2)oc(N2CCOCC2)c1` [Compound 249]: the pIC50 under setting [1] is over 6.00.

Regarding `O=c1cc(-c2ccc(CNCc3ccc(OC(F)(F)F)cc3)cc2)oc(N2CCOCC2)c1` [Compound 252], the pIC50 under setting [1] was over 6.00.

As for `COc1cccc(CNCc2ccc(-c3cc(=O)cc(N4CCOCC4)o3)cc2)c1OC` [Compound 253], the pIC50 under setting [1] was over 6.00.

For `Nc1ccccc1CNCc1ccc(-c2cc(=O)cc(N3CCOCC3)o2)cc1` [Compound 255], under setting [1], the pIC50 is over 6.00.

Regarding `O=c1cc(-c2ccc(CN3Cc4cccc5cccc(c45)C3)cc2)oc(N2CCOCC2)c1` [Compound 258], the pIC50 under setting [1] was over 6.00.

Consider `O=c1cc(-c2ccc(CN3CCc4ccccc4C3)cc2)oc(N2CCOCC2)c1` [Compound 260], for which the pIC50 under setting [1] was over 6.00.

On to `CC(=O)OC(C)C(=O)Nc1ccc(-c2cc(=O)cc(N3CCOCC3)o2)cc1` (stereo not drawn) [Compound 267], for which, under setting [1], the pIC50 was over 6.00.

On to `CC(O)C(=O)Nc1ccc(-c2cc(=O)cc(N3CCOCC3)o2)cc1` (stereo not drawn) [Compound 268], for which the pIC50 under setting [1] is over 6.00.

Consider `CCOC(=O)CC(=O)Nc1ccc(-c2cc(=O)cc(N3CCOCC3)o2)cc1` [Compound 269], for which the pIC50 under setting [1] is over 6.00.

For the compound `O=C(CSc1ccccc1)Nc1ccc(-c2cc(=O)cc(N3CCOCC3)o2)cc1` [Compound 270], the pIC50 under setting [1] is over 6.00.

Take `O=C(Cc1cccs1)Nc1ccc(-c2cc(=O)cc(N3CCOCC3)o2)cc1` [Compound 271]: the pIC50 under setting [1] was over 6.00.

On to `O=C(Nc1ccc(-c2cc(=O)cc(N3CCOCC3)o2)cc1)C1CCCN1C(=O)C(F)(F)F` (stereo not drawn) [Compound 279], for which, under setting [1], the pIC50 is over 6.00.

With `O=c1cc(N2CCCC2)oc2c1ccc1ccccc12` [Compound 312, 2-pyrrolidin-1-yl-benzo[h]chromen-4-one], the pIC50 under setting [2] was 5.00.

With `O=c1cc(N2CCC(CO)CC2)oc2c1ccc1ccccc12` [Compound 318, 2-(4-Hydroxymethyl-piperidin-1-yl)-benzo[h]chromen-4-one], the pIC50 under setting [1] is over 6.00.

For `O=c1cc(N2CCSC2)oc2c1ccc1ccccc12` [Compound 330, 2-(Thiazolidin-3-yl)-benzo[h]chromen-4-one], the pIC50 under setting [2] was 4.70.

In the case of `N#Cc1ccc(COc2ccc3c(=O)cc(N4CCOCC4)oc3c2)cc1` [Compound 338, 7-(4-cyano-benzyloxy)-2-morpholin-4-yl-chromen-4-one], the pIC50 was over 6.00 under setting [1] and 6.02 under setting [2].
